Test results taken from patent US20070281903A1, “Morinda Citrifolia-Based Formulation 5-LOX And 15-LOX” (priority 2006, published 2007).
Several values for one entry are separate records, joined by “and”; a condition that tells them apart may be missing. Equal values may be shown once.

Target: T1, 5-Lipoxygenase (5-LOX) (Homo sapiens, UniProt P09917)
T1 construct: Human peripheral blood mononuclear leukocytes (PBML) were isolated through a Ficoll-Paque density gradient; endogenous in cells; host or cells: human peripheral blood mononuclear leukocytes (PBML)
T1 sequence (P09917 1-674): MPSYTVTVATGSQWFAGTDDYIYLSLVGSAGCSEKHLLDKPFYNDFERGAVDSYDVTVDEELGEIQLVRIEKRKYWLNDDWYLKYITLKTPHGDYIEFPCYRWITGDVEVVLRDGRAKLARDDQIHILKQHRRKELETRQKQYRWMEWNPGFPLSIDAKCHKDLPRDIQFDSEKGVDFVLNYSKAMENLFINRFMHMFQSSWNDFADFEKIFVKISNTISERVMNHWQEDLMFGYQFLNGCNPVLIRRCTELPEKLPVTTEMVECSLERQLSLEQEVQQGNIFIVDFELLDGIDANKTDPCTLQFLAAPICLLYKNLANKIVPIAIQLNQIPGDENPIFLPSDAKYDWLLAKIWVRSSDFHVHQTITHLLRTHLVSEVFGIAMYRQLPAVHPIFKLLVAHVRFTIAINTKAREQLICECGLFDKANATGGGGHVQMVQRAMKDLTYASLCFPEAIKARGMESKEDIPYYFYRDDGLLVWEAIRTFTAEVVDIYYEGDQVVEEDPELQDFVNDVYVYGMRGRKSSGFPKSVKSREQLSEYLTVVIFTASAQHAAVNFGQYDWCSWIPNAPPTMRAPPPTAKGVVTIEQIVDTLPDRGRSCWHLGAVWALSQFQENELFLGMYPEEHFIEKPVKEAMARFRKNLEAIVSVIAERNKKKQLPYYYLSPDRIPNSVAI
Test: 5-Lipoxygenase inhibition assay, LTB4 by EIA in A23187-stimulated human PBML
Type: cell-based
Conditions: for Avg. % Inh.: average of duplicates; for % Inh. / Product (pg/well): single replicate
From the text: Methods employed in this example were adapted from the scientific literature to maximize reliability and reproducibility. […] 110-13 (2000).
In this study, the 5-LOX source was human peripheral blood mononuclear cells (PBMNC) and the substrate was arachidonic acid having a general reaction of: arachidonic acid →5-LOX→5-HPETE→LTB4. Human peripheral blood mononuclear leukocytes (PBML) were isolated through a Ficoll-Paque density gradient. The inhibiting agent was processed Morinda citrifolia puree juice concentrate. Morinda citrifolia was pre-incubated with PBML (5×10^6 cell/ml) in HBSS buffer pH 7.4 at 37° C. for 15 minutes. […] Following neutralization with NaOH and centrifugation, the supernatant LTB4 is measured using an EIA kit.
The supernatant sample was utilized in same assay and protocols as outlined in Example One above, wherein the brown substance obtained was substituted for Morinda citrifolia puree juice.

CC(Cc1ccc(O)c(O)c1)C(C)Cc1ccc(O)c(O)c1 (stereo not drawn) [NDGA, nordihydroguaretic acid]
Avg. % Inh. (Conc. 0.03 uM): 6% | % Inh. (Conc. 0.03 uM): 3.6% and 9.2% | Product (pg/well) (Conc. 0.03 uM): 3608.3 pg/well and 3403.4 pg/well | Avg. % Inh. (Conc. 0.1 uM): 36% | % Inh. (Conc. 0.1 uM): 36.1% | Product (pg/well) (Conc. 0.1 uM): 2433.3 pg/well | Avg. % Inh. (Conc. 0.3 uM): 73% | % Inh. (Conc. 0.3 uM): 73.5% and 72.8% | Product (pg/well) (Conc. 0.3 uM): 1083.1 pg/well and 1106.1 pg/well | Avg. % Inh. (Conc. 1 uM): 97% | % Inh. (Conc. 1 uM): 97.0% and 97.4% | Product (pg/well) (Conc. 1 uM): 233.7 pg/well and 217.9 pg/well | Avg. % Inh. (Conc. 3 uM): 100% | % Inh. (Conc. 3 uM): 99.7% and 100.8% | Product (pg/well) (Conc. 3 uM): 134.9 pg/well and 94.3 pg/well
